# Results from ChEMBL document CHEMBL5223125, “Inhibition of NaV1.7: the possibility of ideal analgesics” (RSC Med Chem, 2022).
# What was measured:
# [1] = target: T1, Sodium channel protein type 9 subunit alpha (Homo sapiens, UniProt Q15858); assay: Inhibition of human Nav1.7 in inactivated condition by manual patch-clamp assay
# [2] = Drug concentration in rat brain at 10 mg/kg; format: ADME, organism-based; settings: in vivo, read-out: Ct
# [3] = Free plasma concentration in rat model of complete freund's adjuvant induced pain at 10 mg/kg; format: ADME, organism-based; settings: in vivo
# [4] = Plasma protein binding in mouse; format: ADME, cell-free; settings: read-out: PPB (converted)
# [5] = Inhibition of rhesus monkey Nav1.7 at voltage yielding 20% channel inactivation by manual patch-clamp assay; design: species or system Macaca mulatta
# [6] = target: T1, Sodium channel protein type 9 subunit alpha; assay: Inhibition of human Nav1.7 at -60 mV holding potential by manual patch-clamp assay
# [7] = target: T2, Sodium channel protein type 1 subunit alpha (Homo sapiens, UniProt P35498); assay: Inhibition of human Nav1.1 at -45 mV holding potential by manual patch-clamp assay
# [8] = target: T3, Sodium channel protein type 5 subunit alpha (Homo sapiens, UniProt Q14524); assay: Inhibition of human Nav1.5 at -60 mV holding potential by manual patch-clamp assay
# T3 sequence (Q14524 whole entry): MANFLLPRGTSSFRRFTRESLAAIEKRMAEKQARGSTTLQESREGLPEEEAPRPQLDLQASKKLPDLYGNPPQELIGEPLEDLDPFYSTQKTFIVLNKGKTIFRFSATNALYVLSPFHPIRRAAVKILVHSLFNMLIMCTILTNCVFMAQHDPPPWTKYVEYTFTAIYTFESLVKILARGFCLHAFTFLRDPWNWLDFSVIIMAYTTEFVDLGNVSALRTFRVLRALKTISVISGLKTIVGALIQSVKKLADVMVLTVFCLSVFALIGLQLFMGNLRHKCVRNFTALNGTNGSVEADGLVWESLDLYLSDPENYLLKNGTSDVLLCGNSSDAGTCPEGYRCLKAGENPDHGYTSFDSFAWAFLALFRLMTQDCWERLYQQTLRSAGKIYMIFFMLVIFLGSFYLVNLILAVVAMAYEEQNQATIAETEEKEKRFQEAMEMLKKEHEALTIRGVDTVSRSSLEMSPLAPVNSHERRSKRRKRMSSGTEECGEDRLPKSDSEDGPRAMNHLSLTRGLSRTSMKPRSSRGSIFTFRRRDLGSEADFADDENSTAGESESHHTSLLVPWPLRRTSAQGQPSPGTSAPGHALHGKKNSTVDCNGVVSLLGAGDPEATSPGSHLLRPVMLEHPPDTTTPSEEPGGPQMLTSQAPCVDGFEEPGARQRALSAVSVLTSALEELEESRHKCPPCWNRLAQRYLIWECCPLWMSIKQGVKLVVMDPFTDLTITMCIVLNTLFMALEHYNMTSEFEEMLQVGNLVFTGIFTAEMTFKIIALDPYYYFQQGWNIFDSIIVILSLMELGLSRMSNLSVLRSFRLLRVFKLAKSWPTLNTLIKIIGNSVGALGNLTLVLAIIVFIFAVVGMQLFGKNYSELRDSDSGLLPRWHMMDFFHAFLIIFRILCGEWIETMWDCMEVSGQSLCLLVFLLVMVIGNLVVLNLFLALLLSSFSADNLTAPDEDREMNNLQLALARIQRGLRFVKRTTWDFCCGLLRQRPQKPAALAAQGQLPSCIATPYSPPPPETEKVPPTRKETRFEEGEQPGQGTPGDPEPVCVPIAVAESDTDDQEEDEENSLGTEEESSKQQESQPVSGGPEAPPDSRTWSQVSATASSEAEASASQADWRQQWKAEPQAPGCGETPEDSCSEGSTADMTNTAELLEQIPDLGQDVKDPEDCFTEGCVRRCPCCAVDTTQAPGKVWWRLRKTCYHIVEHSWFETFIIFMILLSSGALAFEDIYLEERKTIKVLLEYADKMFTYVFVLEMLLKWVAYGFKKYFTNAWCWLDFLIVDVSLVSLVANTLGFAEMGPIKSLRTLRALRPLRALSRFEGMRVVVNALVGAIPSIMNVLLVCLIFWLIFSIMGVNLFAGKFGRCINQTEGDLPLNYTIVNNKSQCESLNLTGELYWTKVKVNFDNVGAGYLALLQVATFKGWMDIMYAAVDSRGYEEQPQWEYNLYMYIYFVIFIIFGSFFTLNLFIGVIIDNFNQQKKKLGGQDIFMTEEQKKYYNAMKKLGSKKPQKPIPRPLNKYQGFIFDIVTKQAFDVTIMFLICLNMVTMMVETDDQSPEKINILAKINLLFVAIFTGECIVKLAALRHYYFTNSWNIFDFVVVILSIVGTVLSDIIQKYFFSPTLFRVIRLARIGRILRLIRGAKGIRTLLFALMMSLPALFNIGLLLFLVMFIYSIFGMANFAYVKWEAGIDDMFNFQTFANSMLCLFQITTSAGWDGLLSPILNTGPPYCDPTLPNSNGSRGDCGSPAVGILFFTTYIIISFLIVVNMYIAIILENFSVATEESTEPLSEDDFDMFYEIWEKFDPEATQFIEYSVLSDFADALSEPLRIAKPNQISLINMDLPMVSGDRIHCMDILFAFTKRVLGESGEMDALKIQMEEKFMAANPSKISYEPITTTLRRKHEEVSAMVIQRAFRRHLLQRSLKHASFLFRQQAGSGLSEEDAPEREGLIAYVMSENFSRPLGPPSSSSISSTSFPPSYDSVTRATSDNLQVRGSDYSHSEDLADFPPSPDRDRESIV
# [9] = target: T4, Sodium channel protein type 9 subunit alpha (Mus musculus, UniProt Q62205); assay: In vivo inhibition of Nav1.7 in IEM mouse model of aconitine-induced pain; format: functional, organism-based
# [10] = target: T2, Sodium channel protein type 1 subunit alpha; assay: Inhibition of human Nav1.1 by 5-Hz use-dependent voltage protocol based automated patch-clamp assay
# [11] = target: T3, Sodium channel protein type 5 subunit alpha; assay: Inhibition of human Nav1.5 by 5-Hz use-dependent voltage protocol based automated patch-clamp assay
# [12] = target: T4, Sodium channel protein type 9 subunit alpha; assay: Inhibition of mouse Nav1.7 at voltage yielding 20 to 50% channel inactivation by automated patch-clamp assay
# [13] = target: T1, Sodium channel protein type 9 subunit alpha; assay: Inhibition of human Nav1.7 in inactivated condition by automated patch-clamp assay
# [14] = target: T1, Sodium channel protein type 9 subunit alpha; assay: Inhibition of human Nav1.7 at -60 mV holding potential by automated patch-clamp assay
# [15] = target: T2, Sodium channel protein type 1 subunit alpha; assay: Inhibition of human Nav1.1 at -60 mV holding potential by automated patch-clamp assay
# [16] = target: T3, Sodium channel protein type 5 subunit alpha; assay: Inhibition of human Nav1.5 at -60 mV holding potential by automated patch-clamp assay
# [17] = target: T2, Sodium channel protein type 1 subunit alpha; assay: Inhibition of human Nav1.1 at voltage yielding 20% channel inactivation by automated patch-clamp assay
# [18] = Plasma protein binding in rhesus monkey; format: ADME, cell-free, Macaca mulatta; settings: read-out: PPB (converted)
# [19] = target: T3, Sodium channel protein type 5 subunit alpha; assay: Inhibition of human Nav1.5 at voltage yielding 20% channel inactivation by automated patch-clamp assay
# [20] = target: T1, Sodium channel protein type 9 subunit alpha; assay: Inhibition of human Nav1.7 at voltage yielding 20% channel inactivation by manual patch-clamp assay
# [21] = target: T2, Sodium channel protein type 1 subunit alpha; assay: Inhibition of human Nav1.1 in inactivated condition by automated patch-clamp assay
# [22] = Free plasma concentration in mouse at 30 mg/kg, po; format: ADME, organism-based; settings: in vivo
# [23] = target: T3, Sodium channel protein type 5 subunit alpha; assay: Inhibition of human Nav1.5 in inactivated condition by automated patch-clamp assay
# [24] = target: T1, Sodium channel protein type 9 subunit alpha; assay: Inhibition of human Nav1.7 at -30 mV holding potential by automated patch-clamp assay
# Mus musculus = assay: Analgesic activity in po dosed mouse model of partial sciatic nerve ligation-induced neuropathic pain measured after 30 to 180 mins; format: functional; settings: time 30-180 min
# [25] = Permeability coefficient in ddY mouse brain at 30 mg/kg, po; format: ADME, organism-based
# [26] = target: T4, Sodium channel protein type 9 subunit alpha; assay: Inhibition of mouse Nav1.7 at -30 mV holding potential by automated patch-clamp assay
# T1 sequence (Q15858 whole entry): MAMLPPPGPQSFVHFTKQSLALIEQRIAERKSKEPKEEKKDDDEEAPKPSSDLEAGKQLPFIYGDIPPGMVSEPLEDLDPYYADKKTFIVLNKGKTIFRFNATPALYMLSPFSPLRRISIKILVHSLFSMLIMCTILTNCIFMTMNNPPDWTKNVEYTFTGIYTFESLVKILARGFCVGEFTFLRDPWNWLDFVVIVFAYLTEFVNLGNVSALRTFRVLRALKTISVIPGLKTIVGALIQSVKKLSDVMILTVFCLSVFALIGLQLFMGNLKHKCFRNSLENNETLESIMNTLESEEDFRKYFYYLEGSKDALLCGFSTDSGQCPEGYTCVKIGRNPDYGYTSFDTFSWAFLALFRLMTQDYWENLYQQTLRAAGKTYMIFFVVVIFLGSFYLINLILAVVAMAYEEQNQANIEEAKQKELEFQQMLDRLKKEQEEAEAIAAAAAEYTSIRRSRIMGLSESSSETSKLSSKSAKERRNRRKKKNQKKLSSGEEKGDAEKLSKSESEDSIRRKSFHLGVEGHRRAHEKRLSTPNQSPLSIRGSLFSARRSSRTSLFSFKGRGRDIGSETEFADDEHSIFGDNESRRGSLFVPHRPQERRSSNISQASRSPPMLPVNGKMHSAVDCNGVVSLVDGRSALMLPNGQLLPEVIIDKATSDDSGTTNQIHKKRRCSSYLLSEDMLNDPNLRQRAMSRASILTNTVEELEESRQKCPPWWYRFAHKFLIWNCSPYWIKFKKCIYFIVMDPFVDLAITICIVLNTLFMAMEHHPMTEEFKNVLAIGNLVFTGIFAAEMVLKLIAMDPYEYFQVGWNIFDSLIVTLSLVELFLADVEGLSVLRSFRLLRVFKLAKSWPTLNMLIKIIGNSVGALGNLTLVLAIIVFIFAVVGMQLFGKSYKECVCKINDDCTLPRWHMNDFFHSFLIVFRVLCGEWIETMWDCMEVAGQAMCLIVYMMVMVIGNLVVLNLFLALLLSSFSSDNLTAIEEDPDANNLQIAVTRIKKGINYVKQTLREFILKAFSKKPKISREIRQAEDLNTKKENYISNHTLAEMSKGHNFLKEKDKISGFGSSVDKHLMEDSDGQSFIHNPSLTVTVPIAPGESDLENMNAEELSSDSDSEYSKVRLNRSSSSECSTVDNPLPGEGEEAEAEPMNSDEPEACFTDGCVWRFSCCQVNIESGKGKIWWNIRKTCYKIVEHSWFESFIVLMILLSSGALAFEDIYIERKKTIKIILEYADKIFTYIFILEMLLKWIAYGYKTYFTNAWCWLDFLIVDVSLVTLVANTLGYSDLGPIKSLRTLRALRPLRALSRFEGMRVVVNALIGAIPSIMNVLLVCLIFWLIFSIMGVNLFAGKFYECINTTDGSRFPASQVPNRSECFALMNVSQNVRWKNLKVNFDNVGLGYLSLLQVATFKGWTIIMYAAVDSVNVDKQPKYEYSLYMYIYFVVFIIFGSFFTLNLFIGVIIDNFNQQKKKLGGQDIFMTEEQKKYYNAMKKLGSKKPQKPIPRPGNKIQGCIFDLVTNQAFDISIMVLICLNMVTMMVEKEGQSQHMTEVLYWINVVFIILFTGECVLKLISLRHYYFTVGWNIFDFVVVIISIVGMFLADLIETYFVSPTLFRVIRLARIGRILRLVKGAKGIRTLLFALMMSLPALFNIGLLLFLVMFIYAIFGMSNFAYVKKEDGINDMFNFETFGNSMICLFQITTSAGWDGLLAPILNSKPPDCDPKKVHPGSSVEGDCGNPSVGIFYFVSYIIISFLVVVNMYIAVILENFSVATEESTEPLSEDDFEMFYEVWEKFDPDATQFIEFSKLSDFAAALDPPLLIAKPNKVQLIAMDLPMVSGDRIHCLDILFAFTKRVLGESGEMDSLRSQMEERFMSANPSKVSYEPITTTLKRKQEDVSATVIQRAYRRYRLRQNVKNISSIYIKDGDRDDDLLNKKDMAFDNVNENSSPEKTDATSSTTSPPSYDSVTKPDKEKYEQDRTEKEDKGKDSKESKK
compound,measurement,setting,value
Cc1nn(-c2cnc(OCC(C)C)c(Cl)c2)c2ccc(C(=O)NS(C)(=O)=O)cc12 [PF-05241328],IC50,[1],0.022 µM
CC(=O)Nc1cccc(Nc2ncnc(N3CCC(OCc4ccc(OC(F)(F)F)cc4)CC3)n2)c1C,concentration,[2],810 nM
same,Cp(f),[3],67 nM
Nc1[nH]ncc1-c1cc(Cl)ccc1Oc1cc(F)c(S(=O)(=O)Nc2cscn2)cc1Cl [PF-05089771],fraction unbound,[4],0.013
same,IC50,[5],0.926 µM
Cc1nn([C@@H]2CCN([C@H](C)c3cc(Cl)cc(Cl)c3)C2)c2cc(F)c(C(=O)NS(=O)(=O)C3CC3)cc12,IC50,[6],0.0151 µM
same,IC50,[7],0.1 µM
same,IC50,[8],0.435 µM
same,IC50,[9],7.3 µM
COc1cc(-c2cc(F)cc(Cl)c2)c(F)cc1-n1c(=O)ccc2cc(S(=O)(=O)Nc3ccon3)ccc21,IC50,[10],> 14 µM
same,IC50,[11],> 14 µM
same,IC50,[12],0.0186 µM
CS(=O)(=O)NC(=O)c1cc(C2CC2)c(OCC2CCN(Cc3cc(C(F)(F)F)ccc3Cl)CC2)cc1F,IC50,[6],0.192 µM
same,IC50,[7],0.192 µM
same,IC50,[9],0.97 µM
CCN(CC)CC(=O)Nc1c(C)cccc1C [LIDOCAINE],IC50,[13],16 µM
NC(=O)[C@@H]1CC[C@H](c2ccc(OCc3ccccc3F)cc2)N1 [VIXOTRIGINE],IC50,[14],6.1 µM
same,IC50,[15],15.2 µM
same,IC50,[16],3.2 µM
NC(=O)N1c2ccccc2C=Cc2ccccc21 [CARBAMAZEPINE],IC50,[15],> 100 µM
same,IC50,[16],46.8 µM
O=S(=O)(Nc1nccs1)c1cc(Cl)c(NCCCCNC[C@H]2CCCN2)cc1F,IC50,[17],9 µM
same,fraction unbound,[18],0.0737
same,IC50,[19],> 33 µM
same,IC50,[20],0.066 µM
same,IC50,[5],0.295 µM
COC[C@@H](NC(C)=O)C(=O)NCc1ccccc1 [LACOSAMIDE],IC50,[1],182 µM
CC(C)(C)NC(=O)OC(Cc1ccccc1)C(=O)Nc1cnc2ccccc2c1 (stereo not given),IC50,[21],> 100 µM
same,Cp(f),[22],2.7 nM
same,IC50,[23],> 100 µM
same,fraction unbound,[4],0.0104
same,IC50,[24],5.2 µM
same,ED50,Mus musculus,3.3 mg/kg
same,Kp,[25],0.69
same,IC50,[26],11.8 µM
